Active and inactive are the calls of the source. The calls are words filed in the database; no cut-off is given here.
Assays:
MCF7 [1] = test: Cytotoxicity against human MCF7 cells at 5 ug/ml after 48 hrs by MTT assay; format: functional, cell-based
MCF7 [2] = test: Cytotoxicity against human MCF7 cells at 100 ug/ml after 48 hrs by MTT assay; format: functional, cell-based

Row | Compound | Activity (MCF7 [1]) | Activity (MCF7 [2])
1 | CC(C)[C@H]1CC[C@@H]2C=CC(=O)CC[C@]12C (relative stereo) | Active | –
2 | CC1=CC(=O)[C@H]2CC[C@H](C(C)C)[C@@]2(C)CC1 (relative stereo) | – | inactive
3 | CC(C)[C@H]1CC[C@@H]2C(=O)C=C(CO)CC[C@@]21C (relative stereo) | – | inactive

Source: ChEMBL document CHEMBL2062358, “Hortonones A to C, hydroazulenones from the genus Hortonia” (J Nat Prod, 2012)
